Data from article PMC11087509, “Multimodal binding and inhibition of bacterial ribosomes by the antimicrobial peptides Api137 and Api88” (Nature Communications, 2024).
Where a SMILES comes first, the peptide text is derived from it. The star is where a group is joined. Orn(α-tetramethylguanidino) = CN(C)C(=N[C@@H](CCCN)C(=O)*)N(C)C

What was measured:
[1] = target: T1, 50S subunit (Escherichia coli, UniProt P0A7M6+P0ADZ0+P60723+P61175); test: Cryo-EM of 50S•Api137 and 50S•Api88 complexes; format: binding, E. coli; settings: 50S 0.3 µM, peptide 30 µM, Tico buffer pH 7.6, room temperature, 20 min
T1 construct: Ribosomes were isolated from the E. coli strain MRE600; made in house; native subunits isolated in house
Protocol: (§1) Several hundred grams of log-phase cells were commercially produced and purchased. Cells were washed in buffer A (20 mmol/L HEPES (pH 7.6), 6 mmol/L MgAc2, 30 mmol/L AcOK, 4 mmol/L ß-mercaptoethanol) and lysed in an M-110L microfluidizer (Microfluidics) at 17,000 psi and 4 °C. Cell debris was removed by low-speed centrifugation (15,000× g, 10 min, 4 °C) to obtain S30 lysate. Crude ribosomes, mostly containing 70S ribosomes, were pelleted by ultracentrifugation (40,000× g, 17 h, 4 °C) and resuspended in buffer A. The 70S ribosomes were separated from 30S and 50S subunits by zonal ultracentrifugation (Beckman Ti-15; 6–40% sucrose gradient in buffer A, 44,000× g, 16 h, 4 °C). The 70S-containing fractions were collected, and the ribosomes were sedimented by ultracentrifugation (40,000× g, 17 h, 4 °C). […]
Purified 50S subunits (0.3 µM) were incubated with Api137 or Api88 (30 µM) in Tico buffer (20 mM HEPES/KOH, pH 7.6, 30 mM AcOK, 6 mM Mg(AcO)2, 4 mM 2-mercaptoethanol) at room temperature for 20 min. The complexes were applied to glow-discharged (Pelco Easy Glow) holey carbon grids (400 Mesh Cu R2/2, Quantifoil MicroTools GmbH) and plunge-frozen in liquid ethane using a Vitrobot Mark IV (Thermo Fisher Scientific) device. […]

[2] = test system: uL22 and uL4; settings: cited from earlier work
[3] = target: DnaK; settings: read-out: Kd (DnaK); peer review response; cited from earlier work
Description: We now introduce trigger factor in line 446 as “…molecular chaperone…” In addition, we hypothesize that Api88 binds to the ribosome within the contact area of TF, which interacts with uL23 and uL29, two proteins we report here as cross-linked to Api88.

[4] = test system: 30S subunit; test: Fluorescence polarization binding, 30S subunit; design: species or system E. coli; settings: ratio 30S / 50S; cf-labeled
Protocol: as §1
Dissociation constants (Kd) were determined using purified 70S ribosome, 50S or 30S subunit and cf-labeled peptides in ribosome preparation buffer. […] Fluorescence polarization was measured on a […]^TM microplate reader (Beckman Coulter, Krefeld, Germany) in the top reading position (λexc = 485 nm, λem = 535 nm). […]

[5] = test system: murine infection models; settings: various models, different routes of administration; cited from earlier work
Description: Here we have focused on two structurally modified versions of apidaecin 1b ([…]), which was originally isolated from the western honeybee (Apis mellifera). […] Api137 and Api88 differ only in their C-termini, i.e., a free acid versus an amide, which are negatively charged or neutral, respectively, ...

For `CC[C@H](C)[C@H](NC(=O)[C@H](Cc1ccc(O)cc1)NC(=O)[C@@H](NC(=O)[C@@H]1CCCN1C(=O)[C@H](CCCNC(=N)N)NC(=O)[C@H](CC(N)=O)NC(=O)[C@H](CC(N)=O)NC(=O)[C@H](CCCN)N=C(N(C)C)N(C)C)C(C)C)C(=O)N1CCC[C@H]1C(=O)N[C@@H](CCCNC(=N)N)C(=O)N1CCC[C@H]1C(=O)N[C@@H](CCCNC(=N)N)C(=O)N1CCC[C@H]1C(=O)N1CCC[C@H]1C(=O)N[C@@H](Cc1c[nH]cn1)C(=O)N1CCC[C@H]1C(=O)N[C@@H](CCCNC(=N)N)C(=O)N[C@@H](CC(C)C)C(=O)O` [Api137] ({Orn(α-tetramethylguanidino)}-NNRPVYIPRPRPPHPRL-OH), the “binding sites identified on 50S” value [1] is listed as “another apidaecin molecule in an unexpected location near the exit of the PET”, the “ribosomal proteins interacting (genetic screen)” value [2] is listed as “uL22 and uL4” and the Kd [3] is listed as about 5 µM. The “binding to 30S subunit weaker compared to 50S subunit” value [4] was about 10 fold and the “efficacy in murine infection models” value [5] was “demonstrated efficacy in various murine infection models”.
